Test results from patent US20220023273A1, “METHODS FOR TREATING SYMPTOMS AND DISORDERS ASSOCIATED WITH LYSOSOMAL STORAGE DISEASES” (GENZYME CORPORATION, priority 2019, published 2022).

What was measured:
[1] = tested on: adult patients with Gaucher disease Type 3; experiment: GD3 clinical study: resting-state fMRI connectivity; format: in vivo, human; conditions: Patient 5 likely non-compliant, GD3, 15 mg/day oral + imiglucerase
Procedure: Neurological function—was further evaluated using functional magnetic resonance imaging (fMRI). Patient 2 was excluded because no fMRI data was collected at the Week 52 session. Resting-state fMRI screening sessions were performed at baseline screening, Week 26, and Week 52 visits. Connectivity estimates from four subjects (Patients 1, 3, 4 and 5) were entered into second-level analyses as a “compliant” group. Patient 5 was isolated due to likely non-compliance with study medication, as described above. Analyses were performed as described elsewhere (Smith et al. [2009]).
Spatial analysis of the connectivity between different anatomic regions of the brain is performed to define a correlation coefficient for regressed voxelwise mean intensity.

[2] = Phase 1 Study 1 Part 1: ascending single-dose pharmacokinetics; format: in vivo, human; conditions: healthy men, fasted
From the text: Study 1 was a 2-part single-center trial in healthy adult male volunteers.
Part 1 of the study enrolled and randomized 55 healthy men (placebo, n=14; 2-, 5-, 15, 25-, 50, and 100-mg doses, n=6 each; 150-mg dose, n=5). Eight healthy men participated in Part 2.
After a 7-day washout period, participants were crossed over to the other condition.

Compound: CC(C)(NC(=O)O[C@@H]1CN2CCC1CC2)c1csc(-c2ccc(F)cc2)n1 [Compound 2, (S)-quinuclidin-3-yl (2-(2-(4-fluorophenyl)thiazol-4-yl)propan-2-yl)carbamate]
- connectivity between the default mode (resting) network and the executive function network [1]: increased in Patients 1, 3, 4 and 6, but decreased in Patient 5
- CL/F, Geometric mean ([2]; single oral 2 mg): 6.3 L/h
- CL/F, Geometric mean ([2]; single oral 5 mg): 5.8 L/h
- CL/F, Geometric mean ([2]; single oral 15 mg): 5.6 L/h
- CL/F, Geometric mean ([2]; single oral 25 mg): 5.0 L/h
- CL/F, Geometric mean ([2]; single oral 50 mg): 5.5 L/h
- CL/F, Geometric mean ([2]; single oral 100 mg): 5.3 L/h
- CL/F, Geometric mean ([2]; single oral 150 mg): 5.6 L/h
- CL/F, Mean ([2]; single oral 150 mg): 5.80 L/h
